Assay results reported in patent US9624238B2, “4H-thieno[3,2-C]chromene-based inhibitors of Notum Pectinacetylesterase and methods of their use” (Lexicon Pharmaceuticals, Inc., priority 2011, dated 2017).

How the values were obtained:
[1] = target: T1, human notum pectinacetyltransferase (Homo sapiens, UniProt Q6P988); experiment: Binding assay (OPTS esterase substrate, fluorimetric); type: biochemical
T1 construct: made in house; unpurified conditioned medium used
T1 sequence (Q6P988 20-496): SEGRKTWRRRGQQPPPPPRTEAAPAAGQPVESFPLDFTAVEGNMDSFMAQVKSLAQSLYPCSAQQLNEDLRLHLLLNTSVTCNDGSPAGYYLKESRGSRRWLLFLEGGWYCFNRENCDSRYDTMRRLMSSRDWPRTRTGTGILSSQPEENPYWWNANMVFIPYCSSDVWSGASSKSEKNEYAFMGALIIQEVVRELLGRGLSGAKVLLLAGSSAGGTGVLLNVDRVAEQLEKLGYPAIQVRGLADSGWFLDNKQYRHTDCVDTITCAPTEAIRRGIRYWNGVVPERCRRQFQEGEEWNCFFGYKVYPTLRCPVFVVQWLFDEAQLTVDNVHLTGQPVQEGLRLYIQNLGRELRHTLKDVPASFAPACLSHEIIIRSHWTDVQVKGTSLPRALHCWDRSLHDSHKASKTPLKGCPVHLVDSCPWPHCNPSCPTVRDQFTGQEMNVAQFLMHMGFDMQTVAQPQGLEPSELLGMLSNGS
Method: Plasmid containing human notum pectinacetyltransferase in pcDNA3.1(+) vector was transfected into HEK (293 cells and clones were selecting by growing in presence of 400 ug/mL of G418. Condition media from these cells was used for the assay.

[2] = target: T1, human notum pectinacetyltransferase; experiment: Reporter assay (CellSensor LEF/TCF-bla FreeStyle 293F cells, Wnt3a and notum conditioned media); type: cell-based
Method: Plasmid containing human notum pectinacetyltransferase in pcDNA3.1(+) vector was transfected into HEK (293 cells and clones were selecting by growing in presence of 400 ug/mL of G418. The clone containing highest expression of human notum pectinacetyltransferase in the conditioned media was maintained for all future activity assays. L cells overexpressing and secreting Wnt3a into the conditioned media were purchased from ATCC.
The assay protocol was as follows. […] The cell growth medium consisted of DMEM with 10% Dialyzed FBS, 5 μg/ml Blasticidin (Invitrogen, R210-01), 0.1 mM NEAA, 25 mM HEPES and 1×GPS. Cells were then trypsinized by first rinsing with PBS, followed by addition of 5 mL of trypsin and incubation of plates at room temperature for two minutes. A total of 10 mL of assay media (Opti-MEM, plus 0.5% dialyzed FBS, 0.1 mM NEAA, 1 mM sodium pyruvate, 10 mM HEPES, 1×GPS) was then added per 15 cm plate. Cells were counted and suspended at 0.75 million cells per mL. […] After incubation of cells at 37° C. for 3 hours, 10 μL of 30 mM LiCl in assay medium was added per well, followed by incubation at 37° C. for another 3 hours. […] Ten μL of the Wnt3a/notum pentinacetyltransferase mixture was then transferred from Greiner plates to each well of the 384-well plates containing the CellSensor cells.

[3] = given as a numeric bound above the legend's range
[4] = given as numeric bound above the legend's highest class
[5] = given as numeric bound above the legend's classes

Row | IC50 ([1]; class symbols) [nM] | EC50 ([2]; class symbols) [nM] | also measured | Structure (SMILES)
1 | < 1000 |  |  | CCOC(=O)c1cc2c(s1)-c1ccc(C)c(F)c1CC2
2 | < 2000 | < 500 |  | NCCNC(=O)c1cc2c(s1)-c1ccccc1CC2 [N-(2-aminoethyl)-4,5-dihydronaphtho[1,2-b]thiophene-2-carboxamide]
3 | < 100 | < 50 |  | NC(=O)c1cc2c(s1)-c1cc(F)cc(Cl)c1SC2
4 |  |  | EC50 [2, 3]: > 1000 nM; IC50 [1, 3]: > 2000 nM | COc1cc2c(cc1C#N)-c1sc(C(=O)O)cc1CC2
5 |  |  | IC50 [1, 4]: > 2000 nM | CCOC(=O)c1cc2c(s1)-c1cc(F)ccc1OC2C (centres unmarked)
6 | < 1000 | < 50 |  | CC1Cc2cc(C(=O)O)sc2-c2cc(F)c(F)cc21 (centres unmarked)
7 | < 2000 | < 50 |  | CC1(C)Cc2cc(C(=O)O)sc2-c2cc(F)c(F)cc21
8 | < 1000 | < 50 |  | O=C(O)c1cc2c(s1)-c1cc(F)cc(F)c1CC2
9 | < 1000 | < 50 |  | O=C(O)c1cc2c(s1)-c1cc(Cl)c(C(F)(F)F)cc1OC2
10 | < 1000 | < 50 |  | Cc1c(F)ccc2c1OCc1cc(C(=O)O)sc1-2
11 | < 1000 | < 50 |  | O=C(O)c1cc2c(s1)-c1cc(F)ccc1S(=O)(=O)C2
12 | < 2000 | < 100 |  | CCOC(=O)c1cc2c(s1)-c1cc(C)cc(C)c1CC2
13 | < 2000 | < 50 |  | COc1ccc2c(c1)CCc1cc(C(=O)O)sc1-2 [7-methoxy-4,5-dihydronaphtho[1,2-b]thiophene-2-carboxylic acid]
14 | < 2000 | < 50 |  | Cc1cc(C)c2c(c1)-c1sc(C(N)=O)cc1CO2
15 | < 1000 | < 50 |  | COC(=O)CNC(=O)c1cc2c(s1)-c1ccccc1CC2
16 | < 50 | < 50 |  | NC(=O)c1cc2c(s1)-c1cc(F)cc(F)c1CC2
17 | < 1000 | < 1000 |  | O=C(NCCN1CCCCC1)c1cc2c(s1)-c1ccccc1CC2
18 | < 50 | < 1000 |  | O=C(O)c1cc2ccc3scc(Cl)c3c2s1
19 | < 50 | < 50 |  | O=C(O)c1cc2c(s1)-c1ccc(Cl)c(Cl)c1OCC2
20 | < 50 | < 500 |  | O=C(O)c1cc2c(s1)-c1sc(Cl)cc1CC2
21 | < 1000 | < 50 |  | CC1Cc2cc(C(=O)O)sc2-c2ccccc21 (centres unmarked)

Row | IC50 ([1]; class symbols) [nM] | EC50 ([2]; class symbols) [nM] | also measured | Structure (SMILES)
22 | < 1000 | < 50 |  | O=C(O)C1CN(C(=O)c2cc3c(s2)-c2ccc(Cl)c(F)c2OC3)CC1c1cccs1 (centres unmarked)
23 | < 50 | < 50 |  | NC(=O)c1cc2c(s1)-c1cc(F)c(F)cc1CC2
24 | < 50 | < 50 |  | NC(=O)c1cc2c(s1)-c1cc(F)ccc1OC2
25 | < 1000 | < 50 |  | CC1(C)Cc2cc(C(N)=O)sc2-c2ccc(Cl)cc21
26 | < 1000 |  |  | Cc1ccc2c(c1C)-c1sc(C(N)=O)cc1CC2
27 | < 100 | < 50 |  | CNC(=O)c1cc2c(s1)-c1ccccc1CC2
28 | < 50 | < 50 |  | O=C(NO)c1cc2c(s1)-c1ccccc1CC2
29 | < 50 | < 50 |  | NC(=O)c1cc2c(s1)-c1ccsc1CC2
30 | < 100 | < 50 |  | Cc1ccc(C)c2c1OCc1cc(C(N)=O)sc1-2
31 | < 100 | < 50 |  | CCOC(=O)c1cc2c(s1)-c1ccc(C)c([N+](=O)[O-])c1CC2
32 | < 1000 | < 50 |  | NC(=O)c1cc2c(s1)-c1cccc(Cl)c1CC2
33 | < 100 | < 50 |  | O=C(O)c1cc2c(s1)-c1cc(Cl)c(Cl)cc1CC2
34 |  |  | IC50 [1, 4]: > 2000 nM | Cc1cc2c(cc1C)-c1sc(C(=O)O)cc1CS2
35 |  |  | IC50 [1, 3]: > 2000 nM | Cc1ccc2c(c1)-c1sc(C(=O)O)cc1CS2
36 | < 1000 |  |  | CC1(C)Cc2cc(C(=O)O)sc2-c2ccccc21
37 | < 1000 |  |  | Cc1ccc2c(c1C)CCc1cc(C(N)=O)sc1-2
38 | < 2000 |  |  | Cc1ccc2c(c1C)-c1sc(C(=O)O)cc1CC2
39 |  |  | IC50 [1, 4]: > 2000 nM | COCC1CCCN1C(=O)c1cc2c(s1)-c1cc(F)cc(F)c1SC2 (centres unmarked)
40 |  |  | IC50 [1, 4]: > 2000 nM | N#Cc1cccc2c1-c1sc(C(=O)O)cc1CC2
41 |  |  | IC50 [1, 4]: > 2000 nM | CCOC(=O)c1cc2c(s1)-c1ccc(C)cc1CC2
42 | < 1000 |  |  | Cc1ccc2c(c1)CCc1cc(C(=O)O)sc1-2

Row | IC50 ([1]; class symbols) [nM] | EC50 ([2]; class symbols) [nM] | also measured | Structure (SMILES)
43 |  |  | IC50 [1, 4]: > 2000 nM | CC(C)(C)OC(=O)CC1CCCN1C(=O)c1cc2c(s1)-c1cc(F)cc(F)c1SC2 (centres unmarked)
44 |  |  | IC50 [1, 3]: > 2000 nM | CC1(C)Cc2cc(C(=O)O)sc2-c2cc(Br)ccc21
45 |  |  | IC50 [1, 4]: > 2000 nM | O=C(O)C1CCCN1C(=O)c1cc2c(s1)-c1ccccc1CC2 (centres unmarked)
46 | < 1000 |  |  | O=C(O)c1cc2c(s1)-c1ccc(Cl)cc1CC2
47 |  |  | IC50 [1, 3]: > 2000 nM | Cc1cccc2c1-c1sc(C(=O)O)cc1CO2
48 | < 2000 |  |  | O=C(O)c1cc2c(s1)-c1c(F)cc(F)cc1OC2
49 | < 2000 |  |  | O=C(NS(=O)(=O)O)c1cc2c(s1)-c1ccccc1CC2
50 |  |  | IC50 [1, 4]: > 2000 nM | NC(=O)c1cc(F)c2c(c1)-c1sc(C(=O)O)cc1CO2
51 | < 50 |  |  | NC(=O)c1cc2c(s1)-c1c(F)ccc(F)c1OC2
52 |  | < 1000 |  | O=C(O)c1cc2c(s1)-c1sccc1CC2 [4,5-dihydrobenzo[1,2-b:6,5-b′]dithiophene-2-carboxylic acid]
53 |  |  | IC50 [1, 4]: > 2000 nM | O=C(O)c1cc2c(s1)-c1c(Br)cccc1CC2
54 | < 1000 |  |  | CCCCNC(=O)c1cc2c(s1)-c1ccccc1CC2
55 | < 50 |  |  | CC1(C)Cc2cc(C(N)=O)sc2-c2c(F)ccc(F)c21
56 |  |  | IC50 [1, 3]: > 2000 nM | CCOC(=O)c1cc2c(s1)-c1cc(F)ccc1OC2
57 | < 1000 |  |  | O=C(O)c1cc2c(s1)-c1c(F)cc(F)cc1SC2
58 | < 2000 |  |  | Cc1cc2c(cc1C)-c1sc(C(=O)O)cc1CC2
59 | < 1000 |  |  | O=C(O)C1CCCN1C(=O)c1cc2c(s1)-c1c(F)ccc(F)c1SC2 (centres unmarked)
60 |  |  | IC50 [1, 5]: > 2000 nM | CCOC(=O)c1cc2c(s1)-c1cc(F)cc(Cl)c1SC2
61 | < 1000 |  |  | Cc1ccc2c(c1C)CCc1cc(C(=O)O)sc1-2
62 | < 2000 |  |  | Cc1cc2c(cc1C)-c1sc(C(N)=O)cc1CC2
63 | < 2000 |  |  | CN(C)c1ccc2c(c1)CCc1cc(C(N)=O)sc1-2

Row | IC50 ([1]; class symbols) [nM] | EC50 ([2]; class symbols) [nM] | also measured | Structure (SMILES)
64 |  |  | IC50 [1, 4]: > 2000 nM | CCOC(=O)c1cc2c(s1)-c1ccc(C#N)cc1CC2
65 |  |  | IC50 [1, 4]: > 2000 nM | CN(C)CCNC(=O)c1cc2c(s1)-c1ccccc1CC2
66 |  |  | IC50 [1, 4]: > 2000 nM | COc1ccc2c(c1)-c1sc(C(=O)O)cc1CO2
67 |  |  | EC50 [2, 5]: > 1000 nM | O=C(O)c1cc2c(s1)-c1scnc1CC2
68 |  |  | IC50 [1, 4]: > 2000 nM | N#Cc1ccc2c(c1)-c1sc(C(=O)O)cc1CO2
69 | < 2000 |  |  | O=C(O)C1CCCN1C(=O)c1cc2c(s1)-c1cc(F)cc(F)c1SC2 (centres unmarked)
70 |  |  | IC50 [1, 4]: > 2000 nM | O=C(NCCN1CCOCC1)c1cc2c(s1)-c1ccccc1CC2
71 |  |  | IC50 [1, 4]: > 2000 nM | CS(=O)(=O)NC(=O)c1cc2c(s1)-c1ccccc1CC2
72 |  |  | IC50 [1, 4]: > 2000 nM | CC1(C)Oc2ccccc2-c2sc(C(=O)O)cc21
73 | < 1000 |  |  | CC1(C)Oc2c(F)cc(F)cc2-c2sc(C(=O)O)cc21
74 | < 2000 |  |  | O=C(O)c1cc2c(s1)-c1cc(Cl)ccc1SC2
75 |  |  | IC50 [1, 4]: > 2000 nM | O=C(O)C1C(O)CCN1C(=O)c1cc2c(s1)-c1c(F)ccc(F)c1SC2 (centres unmarked)
76 | < 1000 |  |  | NC(=O)c1cc2c(s1)-c1cc(Cl)ccc1OC2
77 | < 1000 |  |  | CC1Oc2ccc(F)cc2-c2sc(C(=O)O)cc21 (centres unmarked)
78 | < 1000 |  |  | COC(=O)c1cc2c(s1)-c1ccccc1OC2
79 |  |  | IC50 [1, 4]: > 2000 nM | CCOC(=O)c1cc2c(s1)-c1ccc(Cl)cc1CC2
80 |  |  | IC50 [1, 4]: > 2000 nM | CCOC(=O)c1cc2c(s1)-c1cccc(C#N)c1CC2
81 |  |  | EC50 [2, 5]: > 1000 nM | O=C(O)c1cc2c(s1)-c1ccoc1CC2
82 | < 1000 |  |  | N#Cc1cc(F)c2c(c1)-c1sc(C(=O)O)cc1CO2
83 | < 1000 |  |  | CCNC(=O)c1cc2c(s1)-c1ccccc1CC2
